Measurements as given in EPA's aquatic toxicity sets.

System: Tetrahymena pyriformis
Experiment: 48 h IGC50 (-log10 mol/L); higher = more toxic

| Compound | 48 h IGC50 (-log10 mol/L) |
| --- | --- |
| O=C(O)c1cc(Br)cc(Br)c1 | 3.46 |
| O=Cc1cc(I)cc(I)c1O | 5.34 |
| COc1cc(C=O)cc(OC)c1O | 3.17 |
| C/C=C/C(=O)O | 2.46 |
| C/C=C(\C)C=O | 2.86 |
| N#Cc1cccc(N)c1 | 2.53 |
| CC1CCCCC1=O (centres undefined) | 2.19 |
| CCCCCC#CC=O | 4.72 |
| CCC(=O)OC | 1.39 |
| CCCCCCN | 2.78 |
| CCCNC(C)=O | 1.5 |
| CCCCCOC=O | 2.22 |
| CCCCC(=O)Cl | 2.65 |
| NCCCCc1ccccc1 | 3.62 |
| CCCCCC#CC(=O)OC | 4.04 |
| Clc1sccc1Br | 3.73 |
| CN(C)c1ccc(C=O)cc1 | 3.23 |
| CC#CC(C)(O)CCC (centres undefined) | 2.52 |
| CCC(=O)Cc1ccccc1 | 2.79 |
| C#CC(O)C(C)C (centres undefined) | 2.97 |
| C/C=C/C(=O)OC(C)CC (centres undefined) | 2.58 |

| Compound | 48 h IGC50 (-log10 mol/L) |
| --- | --- |
| CC(C)COC(=O)c1ccccc1 | 3.98 |
| O=C(Oc1ccccc1)c1ccc(O)cc1 | 4.37 |
| CCOC(=O)Cc1cccs1 | 3.27 |
| NC(=O)c1ccccc1[N+](=O)[O-] | 2.28 |
| COC(=O)CCl | 3.89 |
| CCCCCCCCCCC(C)O (centres undefined) | 4.66 |
| CCN(C)c1ccccc1 | 3.29 |
| O=C1CCC(=O)CC1 | 1.33 |
| O=C(O)CCC(=O)O | 2.06 |
| CCOC(=O)c1ccc([N+](=O)[O-])cc1 | 3.71 |
| O=C(NO)c1ccccc1O | 3.38 |
| Cc1c(N)ccc(O)c1C | 4.44 |
| CC(C)C=CC=O | 3.82 |
| CCCCCc1cccs1 | 4.2 |
| N#C/C=C/c1ccco1 | 2.69 |
| Cc1cccc(C)c1[N+](=O)[O-] | 3.3 |
| OCc1ccccc1F | 2.33 |
| C/C=C/C(=O)OC(C)(C)C | 2.36 |
| NC(=O)CCCl | 1.41 |
| COc1ccc(C=O)c(Cl)c1O | 3.2 |
| CCCCCC#CC(=O)OCC | 4.24 |

| Compound | 48 h IGC50 (-log10 mol/L) |
| --- | --- |
| CCCCC(Br)CBr (centres undefined) | 4.15 |
| CCc1cccc(CC)c1N | 3.31 |
| O=C(O)CCCCCBr | 3.03 |
| CCCN=C=S | 4.69 |
| CC/C=C/C=C/C=O | 3.86 |
| N#C/C=C/c1ccccc1 | 3.16 |
| CCCCCCCCC=O | 3.81 |
| Oc1ccc(N=Nc2ccccc2)cc1 | 4.66 |
| CCCCCCC#CC(=O)OC | 4.32 |
| CCCCCc1ccc(O)cc1 | 4.58 |
| CC(C)(C)c1ccncc1 | 3.2 |
| CC(=O)c1ccc(O)c(C(N)=O)c1 | 2.9 |
| Cc1ccc([N+](=O)[O-])cc1F | 3.33 |
| CCCOC=O | 1.98 |
| CCC(=O)NC | 1.47 |
| COc1ccc(C=O)cc1O | 2.86 |
| O=C(CBr)c1ccc2ccc3cccc4ccc1c2c34 | 5.39 |
| CCCCCBr | 3.48 |
| CC(C)C[C@H](N)CO | 2.38 |
| CCCCNC(=S)NCCCC | 3.86 |
| Cc1ccnc(Cl)c1[N+](=O)[O-] | 3.29 |

| Compound | 48 h IGC50 (-log10 mol/L) |
| --- | --- |
| O=[N+]([O-])c1ccc(O)c(Cl)c1 | 4.18 |
| CC(C)C(C)O (centres undefined) | 2 |
| Oc1ccccc1Cc1ccccc1 | 4.31 |
| N#CC(=O)c1ccccc1 | 3.31 |
| COc1cccc(C#N)c1 | 3.01 |
| COc1ccccc1Cl | 3.22 |
| CC(=O)c1ccn(C)c1 | 2 |
| COC(N)=O | 1.02 |
| OCCc1ccccc1 | 2.41 |
| CCOC(=O)C(C(=O)OCC)=C(C)C | 2.93 |
| Cc1ccc(N)cc1Cl | 3.39 |
| CC(C)(C)CC=O | 2.63 |
| CCCC(Br)C(=O)OCC (centres undefined) | 3.7 |
| Brc1ccsc1 | 2.96 |
| CCOC(=O)CCC(C)=O | 1.6 |
| O=C1C=Cc2ccccc2C1=O | 6.2 |
| CCOC(=O)c1ccc(Br)cc1 | 4.33 |
| CC(C)c1ccc(N)cc1 | 3.22 |
| N#CCCCC#N | 1.36 |
| CCC(O)CO (centres undefined) | 0.952 |
| CCOC(=O)/C=C/c1ccccc1 | 3.99 |
